Experimental data taken from paper PMC9057277 (RSC Advances, 2020).

Assays:
[1] = Stability towards liver microsomes of mice
[2] = target: T1, purified ovine COX-1 (Ovis aries, UniProt P05979); experiment: COX Fluorescent Inhibitor Screening Assay Kit, COX-1
T1 sequence (P05979 25-600): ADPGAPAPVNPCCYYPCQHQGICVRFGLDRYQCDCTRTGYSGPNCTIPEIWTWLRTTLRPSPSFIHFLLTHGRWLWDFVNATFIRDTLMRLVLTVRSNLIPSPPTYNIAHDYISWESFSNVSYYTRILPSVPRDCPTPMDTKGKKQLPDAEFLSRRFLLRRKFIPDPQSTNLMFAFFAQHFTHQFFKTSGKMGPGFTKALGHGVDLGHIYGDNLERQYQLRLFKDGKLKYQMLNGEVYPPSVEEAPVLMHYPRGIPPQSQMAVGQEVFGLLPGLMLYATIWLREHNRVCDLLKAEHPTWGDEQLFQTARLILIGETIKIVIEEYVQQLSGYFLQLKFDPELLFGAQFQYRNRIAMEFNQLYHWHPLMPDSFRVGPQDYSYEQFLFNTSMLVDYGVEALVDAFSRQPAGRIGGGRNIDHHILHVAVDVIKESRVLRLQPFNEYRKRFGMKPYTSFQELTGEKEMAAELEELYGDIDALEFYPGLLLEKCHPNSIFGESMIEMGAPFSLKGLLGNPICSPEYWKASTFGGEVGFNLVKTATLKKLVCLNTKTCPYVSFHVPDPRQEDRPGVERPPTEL
Method: 7.4.1 COX inhibition assay
The COX inhibition potency against ovine COX-1 and human COX-2 was determined using the
fluorescence-based COX assay ’COX Fluorescent Inhibitor Screening Assay Kit‘ (catalog number
reported by us.7 In brief, as a measure of COX mediated conversion of arachidonic acid to PG H2 in the
presence of different inhibitor concentrations this assay utilizes the peroxidase component of COX and
analyzes the formation of fluorescent resorufin. All compounds were assayed in a concentration range
of 10 nM to 100 μM, and every inhibitor concentration was assayed in duplicate.
as internal control. IC50 values were estimated using a nonlinear logistic regression ﬁtting procedure
(sigmoidal dose−response model) with Prism Software.

[3] = target: T2, recombinant human COX-2 (Homo sapiens, UniProt P35354); experiment: COX Fluorescent Inhibitor Screening Assay Kit, COX-2; assay type: biochemical; settings: for Selectivity index: IC50 (COX-1)/IC50 (COX-2)
T2 construct: purchased Cayman Chemical, Ann Arbor, MI 700100
T2 sequence (P35354 18-604): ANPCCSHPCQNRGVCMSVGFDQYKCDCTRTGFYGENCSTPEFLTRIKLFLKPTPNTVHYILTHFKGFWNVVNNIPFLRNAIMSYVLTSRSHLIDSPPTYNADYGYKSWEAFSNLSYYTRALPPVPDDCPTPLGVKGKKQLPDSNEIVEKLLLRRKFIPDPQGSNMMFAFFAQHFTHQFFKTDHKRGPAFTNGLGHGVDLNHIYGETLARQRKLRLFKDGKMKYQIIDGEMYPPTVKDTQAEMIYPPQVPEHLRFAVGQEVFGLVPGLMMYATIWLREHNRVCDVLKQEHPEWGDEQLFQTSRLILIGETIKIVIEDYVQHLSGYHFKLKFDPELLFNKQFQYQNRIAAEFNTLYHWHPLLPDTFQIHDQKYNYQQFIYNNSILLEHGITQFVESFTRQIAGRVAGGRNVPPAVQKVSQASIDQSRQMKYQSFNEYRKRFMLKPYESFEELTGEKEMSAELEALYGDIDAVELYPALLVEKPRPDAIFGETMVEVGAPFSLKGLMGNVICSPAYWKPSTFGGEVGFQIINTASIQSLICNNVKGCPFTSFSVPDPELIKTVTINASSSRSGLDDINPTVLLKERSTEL

Row | Structure (SMILES) | conversion by mouse liver microsomes (positive control for oxidation) [1] | IC50 [2] [µM] | IC50 [3] [µM] | Selectivity index [3]
1 | C[C@]12CC[C@H]3[C@@H](CCC4=CC(=O)CC[C@@]43C)[C@@H]1CC[C@@H]2O [Testosteron, reference compound] | Complete conversion | – | – | –
2 | Cc1ccc(-c2cc(CCF)nn2-c2ccc(S(C)(=O)=O)cc2)cc1 [5b] | – | 38.5 | 2.53 | 15
3 | CS(=O)(=O)c1ccc(-n2nc(CCF)cc2-c2ccccc2)cc1 [5c] | – | > 100 | 4.97 | >20
